Holding throughout (type): cell-based
One data set concerns KG1a cell line. Description: Annexin V/propidium iodide cytotoxicity, KG1a unsorted. Particulars: for LD50: Homo sapiens, KG-1a, Annexin V/propidium iodide, 72 hrs; for cytotoxic potency compared in words: KG1a, versus 8-chloroadenosine or other isomers (FIG. 1, FIG. 7). As to the method: A further comparative analysis of the toxicity of compounds in the KG1a cell line over an extended dose range was carried out, and the relative effect assessed of the compounds on the leukaemic stem cell compartment within the KG1a cell line, across the entire dose range. Thus, experimental tests were performed on certain compounds of the present invention to assess their ability to target cancer stem cells in a leukaemic cell line. The acute myeloid leukaemia (AML) cell line, KG1a, was employed to assess the relative effect of compounds on the stem cell compartment. The KG1a cell line was selected because it manifests a minor stem cell-like compartment with a distinct immunophenotype (Lin^−/CD34^+/CD38^−/CD123^+).
Cells of the KG1a cell line were maintained in RPMI medium (Invitrogen, Paisley, UK) supplemented with 100 units/ml penicillin, 100 μg/ml streptomycin and 20% foetal calf serum. Cells were subsequently aliquoted (10^5 cells/100 μl) into 96-well plates and were incubated at 37° C. in a humidified 5% carbon dioxide atmosphere for 72 hrs in the presence of nucleoside analogues and their respective nucleotide analogues (known as ProTides) at concentrations that were experimentally determined for each series of compounds. In addition, control cultures were carried out to which no drug was added. Cells were subsequently harvested by centrifugation and were analyzed by flow cytometry using the Annexin V assay.
Cultured cells were harvested by centrifugation and then resuspended in 195 μl of calcium-rich buffer. Subsequently, 5 μl of Annexin V (Caltag Medsystems, Botolph Claydon, UK) was added to the cell suspension and cells were incubated in the dark for 10 mins prior to washing. Cells were finally resuspended in 190 μl of calcium-rich buffer together with 10 μl of propidium iodide. Apoptosis was assessed by dual-colour immunofluorescent flow cytometry as described previously. Subsequently LD50 values (the dose required to kill 50% of the cells in a culture) were calculated for each nucleoside analogue and ProTide.
The data obtained in these experiments were evaluated using one way ANOVA. All data was confirmed as Gaussian or a Gaussian approximation using the omnibus K2 test. LD50 values were calculated from the non-linear regression and line of best-fit analysis of the sigmoidal dose-response curves. All statistical analyses were performed using Graphpad Prism 6.0 software (Graphpad Software Inc., San Diego, Calif.).

A further data set has as its system T24/83. Description: Viability assay, T24/83. As to the method:
(§1) In vitro viability assay were performed to assess the effects of compounds on cell viability in selected cell lines over ˜72 hrs using the CellTiterGlo (CTG, Promega-G7573) assay. The tests were performed in duplicates with treatment of compounds at 9 points, 3.16 folds titration in 96 well plates over ˜72 hrs. The compound starting concentrations were 198 μM. Cell viability assay using CellTiterGlo in 96-well plate were performed. Compound treatment 72 hrs, standard growth conditions, duplicates. Compounds were dissolved to 40 mM with thawed […]. Compounds were serially diluted at 3.16 fold in thawed DMSO, and warmed to 37° C. before being dissolved in media (2 μl+200 μl). After compounds were dissolved in media, media containing compounds were warmed to 37° C. in incubator and then compounds in media were added to cell plates (50 μl+50 μl) in duplicates. The compounds' final concentrations were from […] to 19.9 nM. All compound solubilities were checked and recorded again, then the plates were transferred to CO2 tissue culture incubator immediately and incubated for 3 days. DMSO final concentration is 0.5%.

For a further data set, the system named is CAL27. Put plainly: Viability assay, CAL27. As for the experimental part: as §1

As for `C[C@H](NP(=O)(OC[C@H]1O[C@@H](n2c(Cl)nc3c(N)ncnc32)[C@H](O)[C@@H]1O)Oc1ccccc1)C(=O)OCc1ccccc1` (mixture of isomers) [C, (2S)-Benzyl 2-(((((2R,3S,4R,5R)-5-(6-amino-8-chloro-9H-purin-9-yl)-3,4-dihydroxy-tetrahydrofuran-2-yl)methoxy)(phenoxy)phosphoryl)amino)propanoate], the LD50 with KG1a cell line turned out to be 1.6 µM. Same read-out and setting: the same measure for `Nc1ncnc2c1nc(Cl)n2[C@@H]1O[C@H](COP(=O)(NCC(=O)OCc2ccccc2)Oc2ccccc2)[C@@H](O)[C@H]1O` (mixture of isomers) [Compound B, Benzyl 2-(((((2R,3S,4R,5R)-5-(6-amino-8-chloro-9H-purin-9-yl)-3,4-dihydroxytetra-hydrofuran-2-yl)methoxy)(phenoxy)phosphoryl)amino)acetate]: 7.1 µM.

With `Nc1ncnc2c1nc(Cl)n2[C@@H]1O[C@H](CO)[C@@H](O)[C@H]1O` [8-chloroadenosine, 8-Chloroadenosine, reference compound], the “Top in. % T24/83” value in the data set with T24/83 amounted to 77.5%. The EC50 with T24/83 (T24/83, read-out: Ab EC50 (μM) T24/83) is 2 µM; in the data set on CAL27 (Homo sapiens, CAL-27, read-out: Ab EC50 (μM) CAL27), 1.73 µM. Moreover, the “Top in. % CAL27” value in the data set with CAL27 was 76.5%. With `Nc1ncnc2c1nc(Cl)n2[C@@H]1O[C@H](COP(=O)(NCC(=O)OCc2ccccc2)NCC(=O)OCc2ccccc2)C(O)C1O` (some centres unmarked) [Compound AC, 8-Chloroadenosine 5′-O-bis(benzyloxy-glycin-N-yl) phosphate], in the data set on KG1a cell line, the “cytotoxic potency compared in words” value is on record as “not as cytotoxic as Isomer A of Compound B”. As to `C[C@H](NP(=O)(OC[C@H]1O[C@@H](n2c(Cl)nc3c(N)ncnc32)C(O)C1O)Oc1cccc2ccccc12)C(=O)OCc1ccccc1` (stereo partly drawn) [Compound D, (2S)-Benzyl 2-(((((2R,3S,4R,5R)-5-(6-amino-8-chloro-9H-purin-9-yl)-3,4-dihydroxy-tetrahydrofuran-2-yl)methoxynaphthalene-1-yloxy)phosphoryl)amino)propanoate], in the data set on KG1a cell line, the LD50 came to 3.8 µM and the “cytotoxic potency compared in words” value is listed as “significantly (P<0.0001) more cytotoxic”. The matching figures for `CCCCCOC(=O)[C@H](C)NP(=O)(OC[C@H]1O[C@@H](n2c(Cl)nc3c(N)ncnc32)C(O)C1O)Oc1cccc2ccccc12` (stereo partly drawn) [Compound E, (2S)-Pentyl 2-(((((2R,3S,4R,5R)-5-(6-amino-8-chloro-9H-purin-9-yl)-3,4-dihydroxy-tetrahydrofuran-2-yl)methoxnaphthalene-1-yloxy)phosphoryl)amino)propanoate]: 20 µM and “less potent than 8-chloroadenosine”.

Values taken from patent publication US20190375778A1, “ADENOSINE DERIVATIVES FOR USE IN THE TREATMENT OF CANCER” (NuCana plc, priority 2016, published 2019).
